Measured values: patent US20240325437A1, “METHODS AND COMPOSITIONS FOR USE IN IMPROVING ADAPTIVE IMMUNITY IN THE ELDERLY POPULATION” (Technion Research & Development Foundation Limited, priority 2023, published 2024)
“Also recorded” adds a separate entry of the source. Where two headings read alike, the source gives them in different places.

Key:
[1] = tested on: CD3+ T cells derived from young mice; assay: Viability of young T cells cultured with heme or spleen extract (Zombie, flow cytometry); format: cell-based, mouse; details: for viability of T cells: with and without agent
Text: (§1) T cell isolation and culture. T cells were harvested from mice spleens and/or lymph nodes (inguinal, axillary, brachial, mandibular, and jejunal), and purified by magnetic separation. Depending on the specific experiment, either bulk CD3^+ T cells or bulk CD3^+CD4^+ T cells or pure naïve (CD3^+CD4^+CD62L^+ CD441^lo CD25^−) T cells were purified using commercially available kits (StemCell, 19765A, 19852A, 19851A), following the manufacturer instructions. The protocol for isolating pure naïve T cells from aged mice was modified, as additional antibodies were added to the initial antibody cocktail to overcome changes in T cell population composition in the aged. Specifically, biotinylated anti-mouse/human CD44 (BioLegend, IM7), and biotinylated anti-mouse CD25 (miltenyi 130-123-860, REA568), were added to the company's premade antibody cocktail for negative selection of lymphocytes. Furthermore, the present inventors performed a step of positive selection of CD62L^+ naïve T cells, using anti-mouse CD62L microbeads (miltenyi, 130-049-701) and magnetic columns (miltenyi, 130-042-201). Primary T cells were cultured at 37° C. and 5% CO2 in RPMI media, supplemented with: 10% FBS, 10 mM Hepes, penicillin/streptomycin, and 0.035% beta-mercaptoethanol. For activation, cells were cultured on plates pre-coated (overnight at 4° C.) with anti-CD3 (2 μg/mL; clone 145-2C11, BioXCell) and anti-CD28 (4 μg/mL, clone 37.51; BioXCell). Resting cells were supplemented with 5 ng/ml recombinant murine IL-7 (PEPROTECH, 217-17). In some experiments, cell cultures were supplemented with hemin chloride (cayman, 16487), ammonium iron (III) citrate (thermos scientific, A11199.30), BSA (Sigma-Aldrich, A9647), and spleen extract, at different concentrations, as indicated in relevant experiments.
Collection of a interstitial fluid-enriched fraction (referred to as spleen extract; SE). Spleens from young or aged mice were harvested, and gently dissociated ontop of a […] cell strainer, in 5 mL PBS or RPMI, 5 min centrifugation at 1350 RPM to separate the cellular pellet from the fluidic fraction, enriched with interstitial components.
(§2) Flow cytometry. […] Intracellular ferrous iron was measured using FerroOrange (Dojindo F374).

[2] = tested on: CD3+ T cells derived from young mice; assay: Proliferation of young T cells stimulated ex vivo with anti-CD3/anti-CD28 (cell trace violet); format: cell-based, mouse
Text: as §1, §2

[3] = tested on: aged T cells; assay: Survival of aged T cells ex vivo; format: cell-based, mouse; details: aged T cells (not shown)
Description: (§3) Flow cytometry. For cell-surface staining, cultured T cells or freshly isolated T cells were resuspended in a separation buffer (PBS containing 2% FBS and 2 mM EDTA) and incubated for 20 min, on ice, with an antibody mix, supplemented purified anti-mouse CD16/32 (Biolegend, clone 93). For intracellular staining, True-Nuclear™ Transcription Factor Buffer Set (Biolegend, 424401) was used, following the manufacturer's protocol. […] Cell viability was assessed by Zombie violet or Zombie NIR™ Fixable Viability Kits (423114, 423105, biolegend). Cell proliferation was assessed by cell trace violet proliferation kit (C34557, Invitrogen). Lysosomal activity was determined using a lysosomal intracellular activity assay kit (ab234622) according to the manufacturer's instructions. Intracellular ferrous iron was measured using FerroOrange (Dojindo F374). Cells were incubated with […] of FerroOrange in HBSS at 37° C. for 40 minutes, and analyzed by flow cytometry. For Lysotracker staining, cells were incubated with 62.5 nM of lysotracker deep red (Invitrogen L12492) in HBSS at 37° C. for 40 minutes and analyzed by flow cytometry. All data were collected on the Attune NxT Flow Cytometer (Thermo Fisher) and analyzed using FlowJo (BD).

[4] = tested on: aged T cells; assay: Proliferation of aged T cells activated ex vivo (CellTrace Violet); format: cell-based, mouse; details: for aged T cells proliferation: aged T cells activated ex vivo with and without agent
Text: as §1, §2

[5] = tested on: aged T cells; assay: Labile iron (FerroOrange) in aged T cells; format: cell-based, mouse
Description: as §2
(§4) Functional assays and intracellular ferrous iron staining. Intracellular ferrous iron was measured using FerroOrange (Dojindo, F374). […] All assays were analyzed by flow cytometry.

[6] = tested on: CD4+ and CD8+ T cells derived from the aged spleen; assay: Ferroptosis resistance to RSL3 of T cells from aged spleen after adoptive transfer; format: cell-based, mouse; details: CD4+ vs CD8+ T cells from aged spleen, TdTomato+ and TdTomato−
Text: Adoptive T cell transfer. Young T cells were isolated from spleens of young OTII td-tomato transgenic mice (8-12 weeks-old) by magnetic isolation (StemCell), as described above. […] Two weeks following cell transfer, mice were euthanized and spleen and lymph nodes (inguinal, axillary, brachial, mandibular, and jejunal) were extracted for further analysis.
The present inventors hypothesized that ferroptosis resistance was accomplished by maintaining low cellular iron levels. To test this, FerroOrange was employed, a fluorescent probe that interacts with cellular ferrous ion (Fe^+2), to measure changes in labile iron in T cells following activation. In young T cells, labile iron pools increased as early as 9 hr post-activation and continued rising until 72 hrs (FIG. 5A). Iron levels varied across different populations as Ferro-Orange fluorescence intensity was higher in CD8^+ compared to CD4^+ T cells, pre- and post-activation (FIG. 5B). […] A major pathway for increasing cellular iron is the uptake of transferrin-bound iron, mediated by the transferrin receptor (TFR1), also known as CD71. […] In agreement with the observed differences in labile iron, CD8^+ T cells expressed higher levels of CD71 compared to CD4^+ T cells (FIG. 5F). […]

[7] = tested on: CD3+ T cells derived from the spleen of young and aged mice; assay: Ferroptosis tolerance: viability of young and aged T cells treated with RSL; format: cell-based, mouse; details: increasing doses of RSL, 48 hrs, young vs aged T cells; listed as RSL
Text: (§5) T cell isolation and culture. T cells were harvested from mice spleens and/or lymph nodes (inguinal, axillary, brachial, mandibular, and jejunal), and purified by magnetic separation. Depending on the specific experiment, either bulk CD3^+ T cells or bulk CD3^+CD4^+ T cells or pure naïve (CD3^+CD4^+CD62L^+ CD441^lo CD25^−) T cells were purified using commercially available kits (StemCell, 19765A, 19852A, 19851A), following the manufacturer instructions. The protocol for isolating pure naïve T cells from aged mice was modified, as additional antibodies were added to the initial antibody cocktail to overcome changes in T cell population composition in the aged. Specifically, biotinylated anti-mouse/human CD44 (BioLegend, IM7), and biotinylated anti-mouse CD25 (miltenyi 130-123-860, REA568), were added to the company's premade antibody cocktail for negative selection of lymphocytes. Furthermore, the present inventors performed a step of positive selection of CD62L^+ naïve T cells, using anti-mouse CD62L microbeads (miltenyi, 130-049-701) and magnetic columns (miltenyi, 130-042-201). […]
as §2
Albumin is the most abundant heme binding protein in the serum. […] The present inventors hypothesized that the unique protein signature measured in aged T cells (FIG. 2H) allows them to survive this hostile microenvironment. […]

[8] = tested on: aged T cells
Description: as §3

[9] = tested on: T cells response to vaccination; details: cited from earlier work
[10] = tested on: aged T cells; details: 24 hr post-activation
Description: Functional assays and intracellular ferrous iron staining. Intracellular ferrous iron was measured using FerroOrange (Dojindo, F374). Following extracellular staining, cells were incubated with 1 μM of FerroOrange in HBSS at 37° C. for 30 minutes in a 5% CO2 incubator, and immediately taken for analysis. For Mitochondrial ferrous iron measurement, cells were incubated with 5 μM of Mito-FerroGreen (Dojindo, M489) in HBSS at 37° C. for 30 minutes in a 5% CO2 incubator, washed twice. […] All assays were analyzed by flow cytometry.

[11] = tested on: OVA-specific OTI and OTII T cells in aged recipients; details: aged mice, OVA/Alum i.p., FAC i.v. on days 1 and 3, spleen on day 5
Description: Control mice were injected with saline. […] Control mice received saline.

[12] = tested on: T cells; assay: Lysosomal intracellular activity assay; format: cell-based, mouse; details: T cells activated in the presence of heme
[13] = tested on: T cells; assay: Lysosomal mass (lysotracker; flow cytometry and fluorescent microscopy); format: cell-based, mouse; details: T cells +/- activation +/- heme
Description: as §2
Fluorescent microscopy. Cells were stained simultaneously with lysotracker deep red and FerroOrange in HBSS as described above, and imaged using Leica DMI8 inverted fluorescent microscope.

[14] = tested on: young T cells; assay: Cellular ROS (DCFDA) in young T cells; format: cell-based, mouse; details: T cells exposed to heme, 48 hr
Description: as §4

[15] = tested on: resting young T cells; assay: FOXO1 levels in resting young T cells by flow cytometry; format: cell-based, mouse; details: resting young T cells incubated ex vivo for 4-48 hr
Description: as §2
Lysosomal dysfunction results in accumulation of late endosomes, also referred to as multi vesicular bodies (MVBs), that are identified by expression of CD63. […] FOXO1 regulates expression of TFEB, the master regulator of lysosomal biogenesis^17. Moreover, FOXO1 expression is critical for maintaining T cell quiescence, and its deficiency induces T cell senescence^18. The present inventors hypothesized that the microenvironment in the aged spleen suppressed FOXO1 expression, thus inducing T cell priming (FIG. 7E-G) and dysregulates lysosomal biogenesis and activity. To test this hypothesis, FOXO1 levels were quantified in resting young T cells that were incubated ex vivo with either heme or SE.

[16] = tested on: T cells derived from young mice; assay: Immunophenotyping of young T cells after ex vivo incubation with heme; format: cell-based, mouse; details: young T cells incubated with heme, without TCR-mediated stimulation
Text: as §5, with “130-042-201). Primary T cells were cultured at 37° C. and 5% CO2 in RPMI media, supplemented with: 10% FBS, 10 mM Hepes, penicillin/streptomycin, and 0.035% beta-mercaptoethanol.” for “130-042-201).”
as §2

[17] = tested on: young T cells; assay: Lipid peroxidation (BODIPY 581/591 C11) in young T cells; format: cell-based, mouse; details: T cells exposed to heme
[18] = tested on: CD3+ T cells derived from young mice; assay: Expression of ferritin, HO-1 and CD39 in young T cells by flow cytometry; format: cell-based, mouse; details: young T cells exposed to heme
Text: as §1, §2

[19] = tested on: T cells; assay: CD63 expression on T cells by flow cytometry; format: cell-based, mouse; details: T cells cultured with heme at different concentrations
Description: as §2

CC(=O)N(O)CCCCCNC(=O)CCC(=O)N(O)CCCCCNC(=O)CCC(=O)N(O)CCCCCN [DFO]
cell viability ([1]; young T cells cultured with spleen extract plus DFO): partially rescued cell viability

CC(=O)N[C@@H](CS)C(=O)O [NAC, N-acetyl cysteine]
viability of T cells ([1]; young T cells activated 48 hr in the presence of SE): improved cell viability | viability of T cells ([1]; young T cells activated 48 hr in the presence of heme): improved cell viability | proliferation ([2]; young T cells activated 48 hr in the presence of SE, with and without agent): improved | proliferation ([2]; young T cells activated 48 hr in the presence of heme, with and without agent): improved | aged T cells survival [3]: neither BSA nor NAC improved | aged T cells proliferation [4]: neither BSA nor NAC improved

C=C[C@H]1C[N@@]2CC[C@H]1C[C@H]2[C@H](O)c1ccnc2ccc(OC)cc12 [Quinine, quinine]
labile iron pools (Ferro-Orange) ([5]; aged CD3+ T cells cultured with quinine (15 uM)): increases labile iron pools | aged T cells proliferation [4]: rescued their proliferative capacity

COC(=O)c1ccc([C@@H]2c3[nH]c4ccccc4c3C[C@@H](C(=O)OC)N2C(=O)CCl)cc1 [RSL3]
resistance to RSL3-induced ferroptosis [6]: more resistant to RSL3-induced ferroptosis | cell viability after RSL (ferroptosis tolerance) [7]: aged T cells survived even high levels of the drug; also recorded: aged T cells are significantly more tolerant to ferroptosis than young T cells

N-methyl protoporphyrin IX
proliferation ([4]; aged T cells supplemented with FAC plus FECH inhibitor): prevented the alleviating effect on proliferation

ferric ammonium citrate [FAC]
labile iron pools (FerroOrange) ([5]; aged T cells activated ex vivo in the presence of FAC): increased labile iron pools | CD71 expression ([8]; FAC-supplemented aged CD8+ T cells (not shown)): the shift in CD71 expression was smaller | CD71 expression ([8]; FAC-supplemented aged T cells): downregulation of CD71 | T cells response to vaccination ([9]; hepcidin-treated mice, in vivo administration of FAC): rescued | mitochondrial iron pools [10]: replenished mitochondrial iron pools | proliferation of antigen specific CD4+ T cells (OTII) [11]: improved proliferation | proliferation of antigen specific CD8+ T cells (OTI) [11]: not affected | aged T cells proliferation [4]: significant improvement in proliferative capacity

hemin chloride [heme]
lysosomal activity [12]: suppressed | lysosomal mass [13]: downregulated lysosomal mass | increase in cellular ROS [14]: ~2 fold | cell viability ([1]; resting young CD3+ T cells with IL-7, heme for 48 hr): significantly reduced cell viability, in a dose-dependent manner | cell viability ([1]; resting young CD3+ T cells with IL-7, heme for 48 hr, listed as Heme): reduces cell viability | FOXO1 levels [15]: dropped within 4 hr and continued to drop during the 48 hr of incubation | proliferation ([2]; young T cells activated 48 hr, exposure to heme or SE alone): completely blocked | T cell differentiation / naïve T cell pool [16]: sufficient to induce T cell differentiation and deplete the naïve T cell pool | lipid peroxidation [17]: large induction in lipid peroxidation | CD39 expression [18]: also induced; also recorded: sufficient to induce CD39 | expression of HO-1 [18]: sufficient to induce expression | expression of ferritin [18]: sufficient to induce expression | CD39 expression ([18]; listed as Heme): induces expression | expression of HO-1 ([18]; listed as Heme): induces expression | expression of ferritin ([18]; listed as Heme): induces expression | CD63 expression [19]: induced CD63 expression, in a dose-dependent manner

hepcidin
T cells response to vaccination ([9]; mice treated with hepcidin): diminished

holo-transferrin: iron saturated transferrin
aged T cells proliferation [4]: significant improvement in proliferative capacity
